Test results taken from patent EP2608671B1, “COMPOUNDS FOR TREATMENT OF CANCER” (Gtx, Inc., priority 2010, dated 2012).
Where two headings read alike, the source gives them in different places.

Experiments:
DU 145 = test: cells; settings: Homo sapiens
B16-F1 = test: SRB cell growth inhibition (cytotoxicity) assay; type: cell-based, mouse
Source text: (§1) The only compounds which belong to the invention are the ones falling under the scope of formula (XI).

WM-164 = test: SRB cell growth inhibition (cytotoxicity) assay; type: cell-based, human; settings: Homo sapiens
PC-3 = test: cells; settings: Homo sapiens
Source text: as §1
Cells were stained with SRB solution.
Cells. […] Cells between the third and fifth passages were used for experiments.
Cell growth inhibition studies. […] Cells were stained with sulphorhodamine B (SRB) solution.

PPC-1 = test: cells; settings: Homo sapiens
LNCaP = test: cells; settings: Homo sapiens
A375 = test: SRB cell growth inhibition (cytotoxicity) assay; type: cell-based, human
[1] = DU-145, 96 h, read-out: IC50 ± SEM (nM) Du 145
[2] = Mus musculus; B16-F1 melanoma cells, 48 h, SRB; read-out: IC50 ± SEM (nM) B16-F1
[3] = WM164 melanoma cells, 48 h, SRB, read-out: IC50 ± SEM (nM) WM164
[4] = PC-3, 96 h, read-out: IC50 ± SEM (nM), PC-3
[5] = PPC-1, 96 h, read-out: IC50 ± SEM (nM), PPC-1
[6] = 96 h, read-out: IC50 ± SEM (nM), LNCaP
[7] = Homo sapiens, A-375; A375 melanoma cells, 48 h, SRB; read-out: IC50 ± SEM (nM) A375
[8] = DU-145, 96 h, read-out: IC50 (nM), Du 145
[9] = Mus musculus, B16-F1; SRB, 48 h; Table 11; read-out: IC50 (nM), B16-F1
[10] = WM164, SRB, 48 h, Tables 11, 12, read-out: IC50 (nM), WM164
[11] = PC-3, 96 h, read-out: IC50 (nM), PC-3
[12] = PPC-1, 96 h, read-out: IC50 (nM), PPC-1
[13] = 96 h, read-out: IC50 (nM), LNCaP
[14] = Homo sapiens, A-375; SRB, 48 h; Table 11; read-out: IC50 (nM), A375
[15] = DU-145, 96 h, read-out: IC50 ± SEM (nM), DU 145
[16] = Mus musculus, B16-F1; read-out: IC50 ± SEM (nM), B16-F1
[17] = WM164, SRB assay, 96 h, Table 2, read-out: IC50 ± SEM (nM), WM-164
[18] = Homo sapiens, A-375, 96 h; read-out: IC50 ± SEM (nM), A375

Row | Structure (SMILES) | IC50 (DU 145; [1]) | IC50 (B16-F1; [2]) | IC50 (WM-164; [3]) | IC50 (PC-3; [4]) | IC50 (PPC-1; [5]) | IC50 (LNCaP; [6]) | IC50 (A375; [7]) | further results
1 | COc1cccc(C(=O)c2cn(S(=O)(=O)c3ccccc3)c(-c3ccccc3)n2)c1 [11ac, (3-methoxyphenyl)(2-phenyl-1-(phenylsulfonyl)-1H-imidazol-4-yl)methanone] | > 10000 nM | > 10000 nM | > 10000 nM | > 10000 nM | > 10000 nM | > 10000 nM | > 10000 nM | 
2 | COc1ccc(-c2nc(C(=O)c3ccc(F)cc3)cn2S(=O)(=O)c2ccccc2)cc1OC [11hb, (2-(3,4-dimethoxyphenyl)-1-(phenylsulfonyl)-1H-imidazol-4-yl)(4-fluorophenyl)methanone] | 3310 nM | 2000 ± 400 nM | 1400 ± 30 nM | 10000 nM | 1440 ± 49 nM | 1920 ± 77 nM | 960 ± 59 nM | 
3 | COc1cc(OC)cc(C(=O)c2c[nH]c(-c3ccccc3)n2)c1 [12ad, (3,5-dimethoxyphenyl)(2-phenyl-1 H-imidazol-4-yl)methanone] |  |  |  |  |  |  |  | IC50 (DU 145; [8]): 2590 nM; IC50 (B16-F1; [9]): 5400 nM; IC50 (WM-164; [10]): 2100 nM; IC50 (PC-3; [11]): 3270 nM; IC50 (PPC-1; [12]): 2130 nM; IC50 (LNCaP; [13]): 3610 nM; IC50 (A375; [14]): 2800 nM
4 | COc1cc(C(=O)c2cc(-c3ccccc3)n[nH]2)cc(OC)c1OC [1k, (3-Phenyl-1H-pyrazol-5-yl)(3,4,5-trimethoxyphenyl)methanone] |  |  |  |  |  |  |  | IC50 (DU 145; DU-145, read-out: IC50 ±SEM (nM), DU 145): 140 nM; IC50 (B16-F1; Mus musculus, B16-F1; Table 6; read-out: IC50 ±SEM (nM), B16-F1): 245 nM; IC50 (WM-164; WM164, Table 6, read-out: IC50 ±SEM (nM), WM164): 220 nM; IC50 (PC-3; PC-3, read-out: IC50 ±SEM (nM), PC-3): 101 nM; IC50 (PPC-1; PPC-1, read-out: IC50 ±SEM (nM), PPC-1): 84 nM; IC50 (LNCaP; read-out: IC50 ±SEM (nM), LNCaP): 101 nM; IC50 (A375; Homo sapiens, A-375; Table 6; read-out: IC50 ±SEM (nM), A375): 100 nM
5 | Cc1ccc(-c2nc(C(=O)c3ccc(F)cc3)cn2S(=O)(=O)c2ccccc2)cc1 [11db, (4-fluorophenyl)(1-(phenylsulfonyl)-2-(p-tolyl)-1H-imidazol-4-yl)methanone] | 80 ± 1 nM | 287 ± 31 nM | 107 ± 14 nM | 80 ± 1 nM | 57 ± 1 nM | 55 ± 3 nM | 113 ± 14 nM | 
6 | COc1ccc(S(=O)(=O)n2cc(C(=O)c3ccc(F)cc3)nc2-c2ccc(N(C)C)cc2)cc1 [12gba, (2-(4-(dimethylamino)phenyl)-1-((4-methoxyphenyl)sulfonyl)-1H-imidazol-4-yl)(4-fluorophenyl)methanone] | 129 nM | ~100 nM | ~100 nM | 44.1 nM | 63.4 nM | 73.2 nM | ~100 nM | 
7 | COc1ccc(C(=O)c2cn(S(=O)(=O)c3ccccc3)c(-c3ccccc3)n2)cc1 [11ab, (4-methoxyphenyl)(2-phenyl-1-(phenylsulfonyl)-1H-imidazol-4-yl)methanone] | > 10000 nM | > 10000 nM | > 10000 nM | > 10000 nM | > 10000 nM | > 10000 nM | > 10000 nM | 
8 | COc1cc(C(=O)c2cn(C)c(-c3ccc(C)cc3)n2)cc(OC)c1OC [12dab, (1-methyl-2-(p-tolyl)-1H-imidazol-4-yl)(3,4,5-trimethoxyphenyl)methanone] | 36 nM |  |  | 46 nM | 28 nM | 32 nM |  | IC50 (B16-F1; Mus musculus, B16-F1, 48 h, read-out: IC50 ± SEM (nM) B16-F1): 134 nM; IC50 (WM-164; WM164, 48 h, read-out: IC50 ± SEM (nM) WM164): 40 nM; IC50 (A375; Homo sapiens, A-375, 48 h, read-out: IC50 ± SEM (nM) A375): 32 nM
9 | COc1cc(C(=C(C)C)c2csc(-c3ccccc3)n2)cc(OC)c1OC [2a, 4-(2-Methyl-1-(3,4,5-trimethoxyphenyl)prop-1-enyl)-2-phenylthiazole] |  |  |  | 2470 nM | 2040 nM | 1390 nM |  | IC50 (DU 145; [15]): 2650 nM; IC50 (B16-F1; [16]): 3800 ± 1300 nM; IC50 (WM-164; [17]): 3700 ± 1200 nM; IC50 (A375; [18]): 1900 ± 800 nM
10 | COc1ccc(-c2nc(C(=O)c3cc(OC)c(OC)c(OC)c3)cn2S(=O)(=O)c2ccccc2)cc1OC [11ha, (2-(3,4-dimethoxyphenyl)-1-(phenylsulfonyl)-1H-imidazol-4-yl)(3,4,5-trimethoxyphenyl)methanone] | 144 ± 29 nM | 970 ± 68 nM | 139 ± 15 nM | 197 ± 9 nM | 117 ± 2 nM | 114 ± 6 nM | 192 ± 15 nM | 
11 | COc1cc(C(=O)c2c[nH]c(-c3ccc(C)cc3)n2)cc(OC)c1O [12dc, (4-hydroxy-3,5-dimethoxyphenyl)(2-(p-tolyl)-1H-imidazol-4-yl)methanone] | 174 nM | 387 nM | 123 nM | 127 nM | 110 nM | 134 nM | 105 nM | 
12 | COc1cc(C(=O)c2c[nH]c(-c3ccc(C(F)(F)F)cc3)n2)cc(OC)c1OC [12pa, (2-(4-(trifluoromethyl)phenyl)-1H-imidazol-4-yl)(3,4,5-trimethoxyphenyl)methanone] | 174 nM | 469 nM | 175 nM | 127 nM | 110 nM | 134 nM | 163 nM | 
13 | Cc1cccc(C(=O)c2c[nH]c(-c3ccccc3)n2)c1 [12ai, (2-phenyl-1H-imidazol-4-yl)(m-tolyl)methanone] |  |  |  |  |  |  |  | IC50 (DU 145; [8]): > 10000 nM; IC50 (B16-F1; [9]): > 10000 nM; IC50 (WM-164; [10]): > 10000 nM; IC50 (PC-3; [11]): > 10000 nM; IC50 (PPC-1; [12]): > 10000 nM; IC50 (LNCaP; [13]): > 10000 nM; IC50 (A375; [14]): > 10000 nM
14 | COc1cc(/C(=C\C#N)c2csc(-c3ccccc3)n2)cc(OC)c1OC [2c-cis, (E)-3-(2-phenylthiazol-4-yl)-3-(3,4,5-trimethoxyphenyl)acrylonitrile] |  |  |  | ~10000 nM | ~10000 nM | 1990 nM |  | IC50 (DU 145; [15]): ~10000 nM; IC50 (B16-F1; Mus musculus, B16-F1, read-out: IC50 ± SEM (nM), B16-F1): 1200 ± 300 nM; IC50 (WM-164; WM164, 96 h, read-out: IC50 ± SEM (nM), WM-164): 1000 ± 200 nM; IC50 (A375; Homo sapiens, A-375, 96 h, read-out: IC50 ± SEM (nM), A375): 1200 ± 400 nM
15 | COc1cc([S+]([O-])c2cccc(-c3ccccc3)c2)cc(OC)c1OC (stereo not drawn) [4c, 3-(3,4,5-Trimethoxyphenylsulfinyl)biphenyl] |  |  |  | > 10000 nM | > 10000 nM | > 10000 nM |  | IC50 (DU 145; [15]): > 10000 nM; IC50 (B16-F1; [16]): > 10000 nM; IC50 (WM-164; [17]): > 10000 nM; IC50 (A375; [18]): > 10000 nM
16 | Cc1ccc(C(=O)c2cn(S(=O)(=O)c3ccccc3)c(-c3ccccc3)n2)cc1 [11ah, (2-phenyl-1-(phenylsulfonyl)-1H-imidazol-4-yl)(p-tolyl)methanone] | > 10000 nM | > 10000 nM | > 10000 nM | > 10000 nM | > 10000 nM | > 10000 nM | > 10000 nM | 
17 | CN(C)c1ccc(-c2nc(C(=O)c3ccc(F)cc3)cn2S(=O)(=O)c2ccccc2)cc1 [11gb, (2-(4-(dimethylamino)phenyl)-1-(phenylsulfonyl)-1H-imidazol-4-yl)(4-fluorophenyl)methanone] | 74 ± 0.5 nM | 242 ± 26 nM | 56 ± 4 nM | 83 ± 3 nM | 48 ± 0.3 nM | 56 ± 6 nM | 55 ± 7 nM | 
18 | COc1cc(S(=O)(=O)c2cccc(-c3ccccc3)c2)cc(OC)c1OC [4b, 3-(3,4,5-Trimethoxyphenylsulfonyl)biphenyl] |  |  |  | > 10000 nM | > 10000 nM | > 10000 nM |  | IC50 (DU 145; [15]): > 10000 nM; IC50 (B16-F1; [16]): > 10000 nM; IC50 (WM-164; [17]): > 10000 nM; IC50 (A375; [18]): > 10000 nM
19 | COc1cccc(C(=O)c2c[nH]c(-c3ccccc3)n2)c1 [12ac, (3-methoxyphenyl)(2-phenyl-1H-imidazol-4-yl)methanone] |  |  |  |  |  |  |  | IC50 (DU 145; [8]): > 10000 nM; IC50 (B16-F1; [9]): > 10000 nM; IC50 (WM-164; [10]): > 10000 nM; IC50 (PC-3; [11]): > 10000 nM; IC50 (PPC-1; [12]): > 10000 nM; IC50 (LNCaP; [13]): > 10000 nM; IC50 (A375; [14]): > 10000 nM
20 | COc1cc(C(=O)c2cn(S(=O)(=O)c3ccccc3)c(-c3ccccc3C(F)(F)F)n2)cc(OC)c1OC [11ia, (1-(phenylsulfonyl)-2-(2-(trifluoromethyl)phenyl)-1H-imidazol-4-yl)(3,4,5-trimethoxyphenyl)methanone] | > 10000 nM | > 10000 nM | > 10000 nM | > 10000 nM | > 10000 nM | > 10000 nM | > 10000 nM | 
21 | COc1cc(-c2csc(-c3ccccc3)n2)cc(OC)c1OC [2i, 2-Phenyl-4-(3,4,5-trimethoxyphenyl)thiazole] |  |  |  | > 10000 nM | > 10000 nM | > 10000 nM |  | IC50 (DU 145; [15]): > 10000 nM; IC50 (B16-F1; [16]): > 10000 nM; IC50 (WM-164; [17]): > 10000 nM; IC50 (A375; [18]): > 10000 nM
